According to USRE38604E1, “Fluid therapy with L-lactate and/or pyruvate anions” (BTG International Limited, priority 1984, dated 2004):

Assays:
[1] = patient undergoing continuous cyclic peritoneal dialysis; severe recurrent metabolic alkalemia secondary to it; cited from earlier work
brain tissue = conditions: rat, aqueous 20 mM/l, parenteral

Row | Structure (SMILES) | adverse effect of inclusion in routine dialysis fluids [1] | effect on brain tissue (brain tissue) | outcome with continued administration (coma, cerebral edema, death) (brain tissue)
1 | CC(O)C(=O)O (racemic) [d,l-lactate] | encephalopathy | – | –
2 | C[C@@H](O)C(=O)O [d-lactate] | – | swelling of brain tissue is observed | coma develops, the cerebral edema worsens and death ensues
3 | C[C@H](O)C(=O)O [l-lactate] | – | – | does not cause coma or death
